Experimental data reported in patent publication US11970473B2, “Nootkatone derivatives and methods of using the same” (Arkansas State University—Jonesboro, priority 2021, dated 2024).
Converted amounts (≈) assume the structure as drawn. Read-outs that look alike come from different tables or passages of the source.

Key:
MRSA persisters = test: Persister Cell Killing Assay; conditions: after 4 hrs exposure; 128×MIC
Experimental: A persister cell killing assay was performed following the methodology described by Kim et. al. with some modifications.^28 S. aureus strain was grown to stationary phase in CAMHB medium by shaking at 200 rpm overnight at 35° C. An aliquot of stationary phase culture (1 ml) was washed thrice with 1×PBS by centrifugation. After washing, the cells were diluted to ˜5×10^8 CFU/ml (confirmed by plate count). Diluted persister cells (2 ml) plus antibiotics at the desired concentration were incubated in sterile 10×75 mm plastic culture tubes at 35° C. with shaking at 200 rpm. At specific times, 400 μl aliquots were placed into microcentrifuge tubes and the cells washed and serially diluted in PBS. The diluted sample was plated on TSA agar plate with 5% sheep blood by the 6×6 drop plate method. Plates were incubated for 18-20 hours at 35° C., and then colonies were counted to calculate concentrations in CFU/ml. The experiment was performed in triplicates.

[1] = tested on: S. aureus ATCC 700699 and S. aureus ATCC 33591; test: Time-Kill Assay; type: cell-based; conditions: 4×MIC
Experimental: Time kill assay for test antibiotics against S. aureus ATCC 700699 and S. aureus ATCC 33591 strains was conducted using procedures published previously.^26 Briefly, a log-phase bacterial culture was diluted to ˜5×10^6 CFU/ml in warm sterile CAMHB broth and was exposed to antibiotics at 4×MIC concentration then incubated at 35° C. Samples of 20 μl were taken every 2 hours, diluted 10 fold to 10^−5, and the 6×6 drop plate method was performed to determine viable CFU/ml after 18-24 hours of incubation at 35° C. Each antibiotic time-kill assay was conducted in triplicate.

[2] = tested on: S. aureus ATCC 700699 (Sa99); test: Minimal inhibitory concentration (MIC) assay; type: cell-based; conditions: Staphylococcus aureus
Experimental: (§1) Minimal inhibitory concentration (MIC) assay The standard microdilution method recommended by the Clinical and Laboratory Standards Institute (CLSI) was used to determine the MIC of the antibiotics. The starting concentration of compounds was 50 μg/ml and 2-fold dilution was done down the 96 honeycomb well plate column. The MIC assay was conducted in triplicates.

[3] = tested on: S. aureus ATCC 25923 (Sa23); test: Minimal inhibitory concentration (MIC) assay; type: cell-based; conditions: Staphylococcus aureus
Experimental: as §1

[4] = tested on: B. subtilis ATCC 6623 (Bs); test: Minimal inhibitory concentration (MIC) assay; type: cell-based; conditions: Bacillus subtilis
Experimental: as §1

[5] = tested on: S. aureus ATCC 33592 (Sa92); test: Minimal inhibitory concentration (MIC) assay; type: cell-based; conditions: Staphylococcus aureus
Experimental: as §1

[6] = tested on: S. aureus BAA-2312 (Sa12); test: Minimal inhibitory concentration (MIC) assay; type: cell-based; conditions: Staphylococcus aureus
Experimental: as §1

[7] = tested on: S. epidermidis 700296 (Se); test: Minimal inhibitory concentration (MIC) assay; type: cell-based; conditions: Staphylococcus epidermidis, read-out: Antimicrobial activity (MIC) Se
Experimental: as §1

[8] = tested on: Enterococcus faecium ATCC 700221 (Em21); test: Minimal inhibitory concentration (MIC) assay; type: cell-based; conditions: Enterococcus faecium
Experimental: as §1

[9] = tested on: Enterococcus faecalis ATCC 29212 (Es12); test: Minimal inhibitory concentration (MIC) assay; type: cell-based
Experimental: as §1

[10] = tested on: S. aureus ATCC 33591 (Sa91); test: Minimal inhibitory concentration (MIC) assay; type: cell-based; conditions: Staphylococcus aureus
Experimental: as §1

S. aureus strains = test: MIC, summary over S. aureus strains; type: cell-based; conditions: two MRSA strains
Experimental: as §1

[11] = ATCC700699, read-out: Antimicrobial activity (MIC) Sa99
[12] = ATCC25923, read-out: Antimicrobial activity (MIC) Sa23
[13] = ATCC6623, read-out: Antimicrobial activity (MIC) Bs
[14] = ATCC33592, read-out: Antimicrobial activity (MIC) Sa92
[15] = BAA2312, read-out: Antimicrobial activity (MIC) Sa12
[16] = ATCC700221, read-out: Antimicrobial activity (MIC) Em21
[17] = Enterococcus faecalis, ATCC29212, read-out: Antimicrobial activity (MIC) Es12
[18] = ATCC33591, read-out: Antimicrobial activity (MIC) Sa91
[19] = ATCC700699, S. aureus ATCC 700699, antibiotic-resistant strain, read-out: Antimicrobial activity (MIC) Sa99
[20] = ATCC25923, S. aureus ATCC 25923, antibiotic susceptible strain, read-out: Antimicrobial activity (MIC) Sa23
[21] = ATCC6623, B. subtilis ATCC 6623, read-out: Antimicrobial activity (MIC) Bs
[22] = ATCC33592, S. aureus ATCC 33592, antibiotic-resistant strain, read-out: Antimicrobial activity (MIC) Sa92
[23] = BAA2312, S. aureus BAA-2312, antibiotic-resistant strain, read-out: Antimicrobial activity (MIC) Sa12
[24] = ATCC700221, Enterococcus faecium ATCC 700221, read-out: Antimicrobial activity (MIC) Em21
[25] = ATCC29212, Enterococcus faecalis ATCC 29212, read-out: Antimicrobial activity (MIC) Es12
[26] = ATCC33591, S. aureus ATCC 33591, antibiotic-resistant strain, read-out: Antimicrobial activity (MIC) Sa91

Molecule | MIC [2, 19] | MIC [3, 20] | MIC [4, 21] | MIC [5, 22] | MIC [6, 23] | MIC ([7]; S. epidermidis 700296) | MIC [8, 24] | MIC [9, 25] | MIC [10, 26] | further results
gentamycin [reference compound] |  |  |  |  |  |  |  |  |  | CFU count (MRSA persisters): 2.2×10^8 CFU
CN[C@H](CC(C)C)C(=O)N[C@H]1C(=O)N[C@@H](CC(N)=O)C(=O)N[C@H]2C(=O)N[C@H]3C(=O)N[C@H](C(=O)N[C@H](C(=O)O)c4cc(O)cc(O)c4-c4cc3ccc4O)[C@H](O)c3ccc(c(Cl)c3)Oc3cc2cc(c3O[C@@H]2O[C@H](CO)[C@@H](O)[C@H](O)[C@H]2O[C@H]2C[C@](C)(N)[C@H](O)[C@H](C)O2)Oc2ccc(cc2Cl)[C@H]1O [VC, vancomycin, reference compound] |  |  |  |  |  |  |  |  |  | eliminated bacteria at [1]: 10 h; CFU count (MRSA persisters): 2.4×10^7 CFU; MIC [2, 11]: 0.78 µg/mL (≈ 0.538 µM); MIC [3, 12]: 3.12 µg/mL (≈ 2.16 µM); MIC [4, 13]: 0.39 µg/mL (≈ 0.269 µM); MIC [5, 14]: 1.56 µg/mL (≈ 1.08 µM); MIC [6, 15]: 0.78 µg/mL (≈ 0.538 µM); MIC [7]: 1.56 µg/mL (≈ 1.08 µM); MIC [8, 16]: > 100 µg/mL; MIC [9, 17]: 3.12 µg/mL (≈ 2.15 µM); MIC [10, 18]: 1.56 µg/mL (≈ 1.08 µM)
C=C(C)[C@@H]1CC=C2c3sc(-c4ccc5c(c4)OCO5)nc3C[C@@H](C)[C@]2(C)C1 [Compound 17, (5R,5aS,7R)-2-(1,3-benzodioxol-5-yl)-7-isopropenyl-5,5a-dimethyl-5,6,7,8-tetrahydro-4H-benzo[g][1,3]benzothiazole] | > 100 µg/mL | > 100 µg/mL | 12.5 µg/mL (≈ 32.9 µM) | > 100 µg/mL | > 100 µg/mL | 25 µg/mL (≈ 65.9 µM) | > 100 µg/mL | > 100 µg/mL | 25 µg/mL (≈ 65.9 µM) | activity against MRSA strains (S. aureus strains): moderate activity
C=C(C)[C@@H]1CC=C2c3sc(Cc4ccccc4)nc3C[C@@H](C)[C@]2(C)C1 [Compound 3, (5R,5aS,7R)-2-benzyl-7-isopropenyl-5,5a-dimethyl-5,6,7,8-tetrahydro-4H-benzo[g][1,3]benzothiazole] | > 100 µg/mL | > 100 µg/mL | > 100 µg/mL | > 100 µg/mL | > 100 µg/mL | > 100 µg/mL | > 100 µg/mL | > 100 µg/mL | > 100 µg/mL | 
C=C(C)[C@@H]1CC=C2c3sc(-c4ccccc4O)nc3C[C@@H](C)[C@]2(C)C1 [Compound 13, 2-[(5R,5aS,7R)-7-isopropenyl-5,5a-dimethyl-5,6,7,8-tetrahydro-4H-benzo[g][1,3]benzothiazol-2-yl]phenol] | > 100 µg/mL | 50 µg/mL (≈ 142 µM) | 50 µg/mL (≈ 142 µM) | > 100 µg/mL | 100 µg/mL (≈ 284 µM) | > 100 µg/mL | > 100 µg/mL | > 100 µg/mL | 100 µg/mL (≈ 284 µM) | 
C=C(C)[C@@H]1CC=C2c3sc(-c4cccc(OCC)c4)nc3C[C@@H](C)[C@]2(C)C1 [Compound 11, (5R,5aS,7R)-2-(3-ethoxyphenyl)-7-isopropenyl-5,5a-dimethyl-5,6,7,8-tetrahydro-4H-benzo[g][1,3]benzothiazole] | > 100 µg/mL | 50 µg/mL (≈ 132 µM) | > 100 µg/mL | > 100 µg/mL | > 100 µg/mL | > 100 µg/mL | > 100 µg/mL | > 100 µg/mL | > 100 µg/mL | 
C=C(C)[C@@H]1CC=C2c3sc(Nc4ccc(F)cc4)nc3C[C@@H](C)[C@]2(C)C1 [Compound 24, (5R,5aS,7R)—N-(4-fluorophenyl)-7-isopropenyl-5,5a-dimethyl-5,6,7,8-tetrahydro-4H-benzo[g][1,3]benzothiazol-2-amine] | > 100 µg/mL | 50 µg/mL (≈ 136 µM) | 100 µg/mL (≈ 271 µM) | > 100 µg/mL | > 100 µg/mL | > 100 µg/mL | > 100 µg/mL | > 100 µg/mL | > 100 µg/mL | 
C=C(C)[C@@H]1CC=C2c3sc(Nc4ccc(F)cc4F)nc3C[C@@H](C)[C@]2(C)C1 [Compound 25, (5R,5aS,7R)—N-(2,4-difluorophenyl)-7-isopropenyl-5,5a-dimethyl-5,6,7,8-tetrahydro-4H-benzo[g][1,3]benzothiazol-2-amine] | > 100 µg/mL | 100 µg/mL (≈ 259 µM) | > 100 µg/mL | > 100 µg/mL | > 100 µg/mL | > 100 µg/mL | > 100 µg/mL | > 100 µg/mL | > 100 µg/mL | 
C=C(C)[C@@H]1CC=C2c3sc(Nc4ccc(OC(F)(F)F)cc4)nc3C[C@@H](C)[C@]2(C)C1 [Compound 26, (5R,5aS,7R)-7-isopropenyl-5,5a-dimethyl-N-[4-(trifluoromethoxy)phenyl]-5,6,7,8-tetrahydro-4H-benzo[g][1,3]benzothiazol-2-amine] | > 100 µg/mL | 50 µg/mL (≈ 115 µM) | 100 µg/mL (≈ 230 µM) | > 100 µg/mL | > 100 µg/mL | > 100 µg/mL | > 100 µg/mL | > 100 µg/mL | > 100 µg/mL | 
C=C(C)[C@@H]1CC=C2c3sc(-c4ccc(F)c(F)c4)nc3C[C@@H](C)[C@]2(C)C1 [Compound 21, (5R,5aS,7R)-2-(3,4-difluorophenyl)-7-isopropenyl-5,5a-dimethyl-5,6,7,8-tetrahydro-4H-benzo[g][1,3]benzothiazole] | > 100 µg/mL | 100 µg/mL (≈ 269 µM) | > 100 µg/mL | 1.56 µg/mL (≈ 4.2 µM) | > 100 µg/mL | > 100 µg/mL | > 100 µg/mL | > 100 µg/mL | > 100 µg/mL | 
C=C(C)[C@@H]1CC=C2c3sc(Cc4ccccc4C)nc3C[C@@H](C)[C@]2(C)C1 [Compound 4, (5R,5aS,7R)-7-isopropenyl-5,5a-dimethyl-2-(o-tolylmethyl)-5,6,7,8-tetrahydro-4H-benzo[g][1,3]benzothiazole] |  |  |  |  |  |  |  |  |  | MIC [2, 11]: > 100 µg/mL; MIC [3, 12]: > 100 µg/mL; MIC [4, 13]: > 100 µg/mL; MIC [5, 14]: > 100 µg/mL; MIC [6, 15]: > 100 µg/mL; MIC [7]: > 100 µg/mL; MIC [8, 16]: > 100 µg/mL; MIC [9, 17]: > 100 µg/mL; MIC [10, 18]: > 100 µg/mL
